# Source: patent publication US20250205270A1, “ANTIBODY-DRUG CONJUGATE PRECURSORS COMPRISING A CYCLIC DINUCLEOTIDE” (TAKEDA PHARMACEUTICAL COMPANY LIMITED, priority 2016, published 2025)
# Counter-ions that a name gives are not always drawn. Like-named read-outs stand apart in the source and are kept apart here.
# Legend:
# [1] = tested on: phosphorylated IRF3 protein in FaDu cell; assay: Phosphorylated IRF3 protein detection in FaDu cell; assay type: cell-based, human; settings: at 30 μM; 6 hr; 2′,3′-cGAMP 30 μM = 100%
# Method: Human larynx cancer cell line FaDu cell (ATCC) was seeded, the medium was replaced with serum free medium one day after the seeding. After the replacement, the cell was cultured for one day, and to the cell were added the natural ligand 2′,3′-cGAMIP (the final concentration; 30 μM) and test compound (the final concentration; 15 μM or 30 μM). 6 hr after the addition, the cell was washed with PBS, the cell extract was prepared, and the phosphorylated IRF3 protein was detected by ELISA method or Western blotting method. The IRF3 protein phosphorylation activity of the test compound was calculated when the value in the sample with adding the natural ligand 2′,3′-cGAMP at the final concentration of 30 μM was considered as 100%.
# WT STING = WT STING (Homo sapiens (Human), UniProt Q86WV6, H232R); assay type: cell-based
# WT STING, sequence (Q86WV6 whole entry H232R): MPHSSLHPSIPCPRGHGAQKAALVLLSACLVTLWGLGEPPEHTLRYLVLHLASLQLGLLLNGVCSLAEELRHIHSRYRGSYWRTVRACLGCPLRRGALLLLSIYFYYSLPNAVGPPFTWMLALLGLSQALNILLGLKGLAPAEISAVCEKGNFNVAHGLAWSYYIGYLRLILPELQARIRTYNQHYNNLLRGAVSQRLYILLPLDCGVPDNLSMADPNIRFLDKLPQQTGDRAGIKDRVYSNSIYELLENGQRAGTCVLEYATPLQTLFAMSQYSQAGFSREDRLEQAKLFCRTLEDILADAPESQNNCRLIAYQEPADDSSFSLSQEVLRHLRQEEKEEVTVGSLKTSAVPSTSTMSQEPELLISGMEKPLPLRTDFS
# [2] = Human plasma stability assay; assay type: in vitro ADME; settings: 37° C., 0-24 hours, LC/MS/MS
# Method: The compound was incubated in heparinized human plasma at 37° C. for 0, 1, 2, 4, 8 and 24 hours, and the change in compound concentration was measured by LC/MS/MS method. The elimination rate constant (=k(/h)) was calculated based on the fitted curve assuming the exponential decrease of concentration as follows; concentration at time x=initial concentration*exp(−k*x).
# [3] = tested on: B16F10 syngeneic mice model; assay: Syngeneic tumor model, anti-tumor effect, B16F10; assay type: in vivo, mouse; settings: C57BL/6 mice; intravenous, every 3 days, 3 times; Ex3a 30 mg/kg, Ex14 1.0 mg/kg
# Method: (§1) Ex14 and Ex3a were tested in syngeneic tumor models in mice. […] See FIG. 8 and FIG. 9 for the anti-tumor effect colon carcinoma CT-26 syngeneic mice model, and FIG. 10 and FIG. 11 for the anti-tumor effect in the […] B16F10 syngeneic mice model.
# (§2) 8×10^4 B16F10 and 2×10^5 CT-26 mouse tumor cells were subcutaneously implanted in the flank of female C57BL/6 (B16F10) and Balb/C (CT-26) mice (n=7 per group). Vehicle (1×PBS), compound Ex3a (30 mg/kg) or Ex14 (1.0 mg/kg) were intravenously administered (final volume of 100 μL) to tumor-bearing mice once the tumor volume has reached 100 mm^3 (Day 0). Vehicle, Ex3a or Ex14 were given every 3 days for a total of 3 doses (q3dx3). Tumor and body weight measurements were taken three times per week using vernier calipers and mettler scale, respectively. Tumor volumes were determined by multiplying the square of the width (‘W’), measured along the short axis of the tumor, by one-half the length (‘L’) measured along the […]
# [4] = tested on: colon carcinoma CT-26 syngeneic mice model; assay: Syngeneic tumor model, anti-tumor effect, CT-26; assay type: in vivo, mouse; settings: Balb/C mice; intravenous, every 3 days, 3 times; Ex3a 30 mg/kg, Ex14 1.0 mg/kg
# Method: as §1, §2
# [5] = tested on: THP1-Dual cells (ISG54 promoter Lucia luciferase reporter); assay: THP-1 Dual Lucia reporter gene assay; assay type: cell-based, human; settings: 20 hours incubation, read-out: THP-1 Dual cell EC50 (μM) Reporter
# Method: THP1-Dual™ cells (InvivoGen #thpd-nfis) were derived from the human THP-1 monocyte cell line by stable integration of the Lucia luciferase gene, a secreted luciferase reporter gene, under the control of an ISG54 (interferon-stimulated gene) minimal promoter in conjunction with five interferon (IFN)-stimulated response elements. On the day of experiment, the cells were plated to a black, 384-well plate (Corning 356697) at 7500 cells/25 μL per well density in growth media (RPMI 1640, 2 mM L-glutamine, 25 mM HEPES, 10% heat-inactivated fetal bovine serum, 100 μg/mL Normocin™, 100 U/mL-100 μg/mL Pen-Strep, 10 μg/mL of blasticidin, and 100 μg/mL of Zeocin). The cell plates were dosed with 62.5 nL of the testing compounds, and then incubated at 37° C. for 20 hours. At the end of the incubation, 15 μL/well of the QUANTI-Luc™ (InvivoGen #rep-qlc1) were added, and luminescence was measured immediately using the LeadSeeker.
Compound,"activity level of test compound, IRF3 protein phosphorylation test [1] [% at 30 μM]",activity level against WT STING of test compound (30 μM) (WT STING) [%],"Human plasma stability (/h), elimination rate constant k [2] [h⁻¹]",also measured
"Nc1ncnc2c1ncn2[C@@H]1O[C@@H]2COP(=O)(O)O[C@@H]3[C@H](O)[C@@H](COP(=O)(S)O[C@H]2[C@H]1F)O[C@H]3n1cc(F)c2c(=O)[nH]cnc21 (stereo partly drawn) [Example 3, 7-((2R,5R,7R,8R,12aR,14R,15R,15aR,16R)-14-(6-amino-9H-purin-9-yl)-15-fluoro-10,16-dihydroxy-2,10-dioxido-2-sulfanyloctahydro-12H-5,8-methanofuro[3,2-1][1,3,6,9,11,2,10]pentaoxadiphosphacyclotetradecin-7-yl)-5-fluoro-3,7-dihydro-4H-pyrrolo[2,3-d]pyrimidin-4-one 1.7 Triethylamine Salt]",464.6,,,
"Nc1ncnc2c1ncn2[C@@H]1O[C@@]23CO[C@@H]1[C@@H]2OP(=O)(S)OC[C@H]1O[C@@H](n2cc(F)c4c(=O)[nH]cnc42)[C@H](OP(=O)(O)OC3)[C@@H]1O (stereo partly drawn) [Example 17, 7-((5R,7R,8R,12aR,14R,15R,15aS,18R)-14-(6-amino-9H-purin-9-yl)-10,18-dihydroxy-2,10-dioxido-2-sulfanylhexahydro-14H-15,12a-(epoxymethano)-5,8-methanofuro[3,2-1][1,3,6,9,11,2,10]pentaoxadiphosphacyclotetradecin-7(12H)-yl)-5-fluoro-3,7-dihydro-4H-pyrrolo[2,3-d]pyrimidin-4-one di-triethylamine Salt]",,110,,
"Nc1nc2c(ncn2[C@@H]2O[C@@H]3COP(=O)(O)O[C@@H]4[C@H](O)[C@@H](COP(=O)(O)O[C@H]3[C@H]2F)O[C@H]4n2cc(F)c3c(=O)[nH]cnc32)c(=O)[nH]1 [Example 19, 2-amino-9-((5R,7R,8R,12aR,14R,15R,15aR,16R)-15-fluoro-7-(5-fluoro-4-oxo-3,4-dihydro-7H-pyrrolo[2,3-d]pyrimidin-7-yl)-2,10,16-trihydroxy-2,10-dioxidooctahydro-12H-5,8-methanofuro[3,2-1][1,3,6,9,11,2,10]pentaoxadiphosphacyclotetradecin-14-yl)-1,9-dihydro-6H-purin-6-one di-triethylamine Salt]",,101,,
"Nc1ncnc2c1ncn2[C@@H]1O[C@@H]2COP(=O)(O)O[C@@H]3[C@H](O)[C@@H](COP(=O)(O)O[C@H]2[C@H]1F)O[C@H]3n1cc(F)c2c(=O)[nH]cnc21 [Example 1, 7-((5R,7R,8R,12aR,14R,15R,15aR,16R)-14-(6-amino-9H-purin-9-yl)-15-fluoro-2,10,16-trihydroxy-2,10-dioxidooctahydro-12H-5,8-methanofuro[3,2-1][1,3,6,9,11,2,10]pentaoxadiphosphacyclotetradecin-7-yl)-5-fluoro-3,7-dihydro-4H-pyrrolo[2,3-d]pyrimidin-4-one di-triethylamine Salt]",468.8,,,
"Nc1ncnc2c1ncn2[C@@H]1O[C@@H]2COP(=O)(O)O[C@@H]3[C@H](O)[C@@H](COP(=O)(S)O[C@H]2[C@H]1F)O[C@H]3n1cc(F)c2c(=O)[nH]cnc21 (stereo partly drawn) [Example 3a, 7-((2R,5R,7R,8R,12aR,14R,15R,15aR,16R)-14-(6-amino-9H-purin-9-yl)-15-fluoro-10,16-dihydroxy-2,10-dioxido-2-sulfanyloctahydro-12H-5,8-methanofuro[3,2-1][1,3,6,9,11,2,10]pentaoxadiphosphacyclotetradecin-7-yl)-5-fluoro-3,7-dihydro-4H-pyrrolo[2,3-d]pyrimidin-4-one Disodium Salt]",,,0.58,"EC50 (WT STING; with digitonin, read-out: STING-293T cell EC50 (μM) Reporter with digitonin (B)): 0.13 µM; anti-tumor effect (tumor volume) [3]: anti-tumor effects were observed; anti-tumor effect (tumor volume) [4]: anti-tumor effects were observed; EC50 ([5]; Homo sapiens, THP1-Dual): 5.6 µM"
"Nc1ncnc2c1ncn2[C@@H]1O[C@@H]2COP(=O)(S)O[C@@H]3[C@H](O)[C@@H](COP(=O)(S)O[C@H]2[C@H]1F)O[C@H]3n1cc(F)c2c(=O)[nH]cnc21 (stereo partly drawn) [Example 14, 7-((2R,5R,7R,8R,10R,12aR,14R,15R,15aR,16R)-14-(6-amino-9H-purin-9-yl)-15-fluoro-16-hydroxy-2,10-dioxido-2,10-disulfanyloctahydro-12H-5,8-methanofuro[3,2-1][1,3,6,9,11,2,10]pentaoxadiphosphacyclotetradecin-7-yl)-5-fluoro-3,7-dihydro-4H-pyrrolo[2,3-d]pyrimidin-4-one Disodium Salt]",,,<0.01,anti-tumor effect (tumor volume) [3]: anti-tumor effects were observed; anti-tumor effect (tumor volume) [4]: anti-tumor effects were observed
"Nc1ncnc2c1ncn2[C@@H]1O[C@@H]2COP(=O)(S)O[C@@H]3[C@H](O)[C@@H](COP(=O)(S)O[C@H]2[C@H]1O)O[C@H]3n1cc(F)c2c(=O)[nH]cnc21 (stereo partly drawn) [Example 5, 7-((5R,7R,8R,12aR,14R,15R,15aS,16R)-14-(6-amino-9H-purin-9-yl)-15,16-dihydroxy-2,10-dioxido-2,10-disulfanyloctahydro-12H-5,8-methanofuro[3,2-1][1,3,6,9,11,2,10]pentaoxadiphosphacyclotetradecin-7-yl)-5-fluoro-3,7-dihydro-4H-pyrrolo[2,3-d]pyrimidin-4-one di-triethylamine Salt (Optical Isomer)]",117.4,,<0.01,
"Nc1nc2c(ncn2[C@@H]2O[C@@H]3COP(=O)(O)O[C@H]4[C@@H](O)[C@H](c5cnn6c(N)ncnc56)O[C@@H]4COP(=O)(O)O[C@@H]2[C@@H]3O)c(=O)[nH]1 [Example 13, 2-amino-9-((5R,7R,8R,12aR,14S,15S,15aS,16R)-14-(4-aminopyrazolo[1,5-a][1,3,5]triazin-8-yl)-2,10,15,16-tetrahydroxy-2,10-dioxidooctahydro-12H-5,8-methanofuro[3,2-1][1,3,6,9,11,2,10]pentaoxadiphosphacyclotetradecin-7-yl)-1,9-dihydro-6H-purin-6-one di-triethylamine Salt]",,99,,
"Nc1nc2c(ncn2[C@@H]2O[C@@H]3COP(=O)(O)O[C@H]4[C@@H](O)[C@H](n5cnc6c(N)ncnc65)O[C@@H]4COP(=O)(O)O[C@@H]2[C@@H]3O)c(=O)[nH]1 [cGAMP, 2′,3′-cGAMP, reference compound]",,,1.39,EC50 [5]: 18 µM
"Nc1ncnc2c1ncn2[C@@H]1O[C@@H]2COP(=O)(O)O[C@@H]3[C@H](O)[C@@H](COP(=O)(S)O[C@H]2[C@H]1F)O[C@H]3n1cc(F)c2c(=O)[nH]cnc21 (stereo partly drawn) [Example 2, 7-((5R,7R,8R,12aR,14R,15R,15aR,16R)-14-(6-amino-9H-purin-9-yl)-15-fluoro-10,16-dihydroxy-2,10-dioxido-2-sulfanyloctahydro-12H-5,8-methanofuro[3,2-1][1,3,6,9,11,2,10]pentaoxadiphosphacyclotetradecin-7-yl)-5-fluoro-3,7-dihydro-4H-pyrrolo[2,3-d]pyrimidin-4-one di-triethylamine Salt (Optical Isomer)]",88.7,112,,
